± gives the standard deviation of the averaged measurements.
Legend:
BLEOMYCIN = compound: Cc1c(N)nc([C@H](CC(N)=O)NC[C@H](N)C(N)=O)nc1C(=O)N[C@H](C(=O)N[C@H](C)[C@@H](O)[C@H](C)C(=O)N[C@H](C(=O)NCCc1nc(-c2nc(C(=O)NCCC[S+](C)C)cs2)cs1)[C@@H](C)O)[C@@H](OC1OC(CO)C(O)C(O)C1OC1OC(CO)C(O)C(OC(N)=O)C1O)c1cnc[nH]1 [BLEOMYCIN]; experiment: surviving fraction relative to DMSO-only wells; higher = less growth inhibition; details: exposure time: 5 days
Method in brief: (§1)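 A line counted only if its three screens reached replicate Pearson r >0.7 and median Z' >0.3. Tumour cells in log phase were seeded at 250–500 per well in 384-well plates and, after 24 hours, kept in continuous contact with inhibitors at 0.5, 1, 5, 10, 50, 100, 500 and 1000 nM for five days. Surviving fraction was taken from CellTiter-Glo luminescence relative to the median of DMSO-only wells.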

[1] = compound: C[C@@H]1CN(CC(=O)Nc2ccc3c(c2)Cc2cccc(-c4cc(=O)cc(N5CCOCC5)o4)c2S3)C[C@H](C)O1; experiment: as above; details: exposure time: 5 days
Method in brief: as §1

Test System	surviving fraction (BLEOMYCIN; 0.5 nM)	surviving fraction (BLEOMYCIN; 1 nM)	surviving fraction (BLEOMYCIN; 5 nM)	surviving fraction (BLEOMYCIN; 10 nM)	surviving fraction (BLEOMYCIN; 50 nM)	surviving fraction (BLEOMYCIN; 100 nM)	surviving fraction (BLEOMYCIN; 500 nM)	surviving fraction (BLEOMYCIN; 1000 nM)	surviving fraction ([1]; 0.5 nM)	surviving fraction ([1]; 1 nM)	surviving fraction ([1]; 5 nM)	surviving fraction ([1]; 10 nM)	surviving fraction ([1]; 50 nM)	surviving fraction ([1]; 100 nM)	surviving fraction ([1]; 500 nM)	surviving fraction ([1]; 1000 nM)
HT1080 SOFT TISSUE	1.001 ± 0.0036	0.965 ± 0.044	0.935 ± 0.018	0.886 ± 0.024	0.798 ± 0.071	0.7 ± 0.046	0.402 ± 0.0042	0.324 ± 0.012	1.01 ± 0.026	1.04 ± 0.027	1.01 ± 0.04	1.02 ± 0.022	0.987 ± 0.054	1.01 ± 0.051	0.962 ± 0.016	0.846 ± 0.029
CHLA90 AUTONOMIC GANGLIA	0.941 ± 0.057	0.925 ± 0.035	0.906 ± 0.067	0.868 ± 0.025	0.864 ± 0.039	0.865 ± 0.021	0.827 ± 0.018	0.796 ± 0.032	1.03 ± 0.052	1.07 ± 0.045	0.994 ± 0.07	1.08 ± 0.07	0.979 ± 0.0078	0.999 ± 0.068	1 ± 0.11	0.966 ± 0.041
JIMT1 BREAST	0.823 ± 0.056	0.82 ± 0.043	0.842 ± 0.019	0.874 ± 0.048	0.952 ± 0.059	0.927 ± 0.028	0.825 ± 0.058	0.698 ± 0.059	0.91 ± 0.034	0.924 ± 0.022	0.936 ± 0.02	0.952 ± 0.031	0.956 ± 0.013	1 ± 0.038	0.971 ± 0.03	0.887 ± 0.024
RDES SOFT TISSUE	0.743 ± 0.081	0.794 ± 0.28	0.732 ± 0.089	0.783 ± 0.096	0.985 ± 0.27	0.915 ± 0.09	0.947 ± 0.19	0.582 ± 0.2	1.18 ± 0.1	1.15 ± 0.11	0.972 ± 0.078	1.08 ± 0.24	0.759 ± 0.24	0.786 ± 0.23	0.799 ± 0.17	0.912 ± 0.24
NOS1 BONE	0.877 ± 0.087	0.841 ± 0.063	0.795 ± 0.04	0.782 ± 0.14	1.02 ± 0.33	0.863 ± 0.038	0.557 ± 0.046	0.656 ± 0.25	1.05 ± 0.15	1.07 ± 0.1	1.12 ± 0.13	1.23 ± 0.13	1.047 ± 0.007	1.12 ± 0.15	0.818 ± 0.029	0.661 ± 0.057
HCC78 LUNG	0.839 ± 0.12	0.932 ± 0.32	0.892 ± 0.2	0.774 ± 0.39	0.376 ± 0.14	0.499 ± 0.13	0.202 ± 0.075	0.0983 ± 0.032	1.13 ± 0.16	0.941 ± 0.26	1.07 ± 0.11	1.21 ± 0.21	1.15 ± 0.17	1.41 ± 0.29	1.27 ± 0.39	1.29 ± 0.013
NY BONE	0.9287 ± 0.0064	0.925 ± 0.054	0.938 ± 0.028	0.911 ± 0.026	0.793 ± 0.035	0.589 ± 0.044	0.238 ± 0.0045	0.161 ± 0.012	1.04 ± 0.014	1.06 ± 0.021	1.05 ± 0.024	1.07 ± 0.011	1.09 ± 0.043	1.12 ± 0.029	0.9613 ± 0.0029	0.915 ± 0.014
T47D BREAST	0.947 ± 0.019	0.915 ± 0.011	0.891 ± 0.02	0.9369 ± 0.0063	0.951 ± 0.02	0.923 ± 0.039	0.693 ± 0.011	0.57 ± 0.03	1.02 ± 0.018	1.01 ± 0.022	1.03 ± 0.013	0.9914 ± 0.0016	1.06 ± 0.027	1.049 ± 0.0087	1.047 ± 0.0069	0.945 ± 0.051
SG28 HEADNECK	0.864 ± 0.081	0.917 ± 0.11	0.892 ± 0.056	0.907 ± 0.13	0.944 ± 0.074	0.899 ± 0.053	0.909 ± 0.028	0.868 ± 0.1	1.07 ± 0.081	1.11 ± 0.13	1.04 ± 0.093	0.986 ± 0.033	0.9 ± 0.054	0.915 ± 0.047	0.9 ± 0.1	0.87 ± 0.11
SUM159 BREAST	1.07 ± 0.18	1.02 ± 0.094	1.01 ± 0.082	0.999 ± 0.086	0.948 ± 0.034	0.908 ± 0.031	0.673 ± 0.13	0.246 ± 0.065	1.08 ± 0.012	1.15 ± 0.11	1.11 ± 0.048	1.13 ± 0.11	1.11 ± 0.079	1.1 ± 0.023	1.13 ± 0.11	1.05 ± 0.029
MDAMB134 BREAST	0.714 ± 0.15	0.771 ± 0.044	0.844 ± 0.011	0.724 ± 0.047	0.804 ± 0.04	0.862 ± 0.12	0.733 ± 0.091	0.753 ± 0.088	1.04 ± 0.082	0.967 ± 0.073	0.955 ± 0.11	0.926 ± 0.04	0.678 ± 0.16	0.714 ± 0.052	0.7305 ± 0.0021	0.63 ± 0.049
SG27 HEADNECK	1.12 ± 0.06	0.997 ± 0.085	0.934 ± 0.081	1.02 ± 0.011	0.949 ± 0.11	1.01 ± 0.17	1.01 ± 0.11	0.864 ± 0.14	1.02 ± 0.1	0.976 ± 0.047	1.13 ± 0.079	1.02 ± 0.15	0.95 ± 0.056	0.988 ± 0.11	1.01 ± 0.061	1.03 ± 0.1
93VU HEADNECK	0.8 ± 0.006	0.83 ± 0.058	0.785 ± 0.011	0.783 ± 0.015	0.764 ± 0.058	0.633 ± 0.023	0.386 ± 0.025	0.327 ± 0.066	0.955 ± 0.062	1.09 ± 0.041	1.07 ± 0.069	1.05 ± 0.029	0.968 ± 0.024	0.943 ± 0.067	0.893 ± 0.045	0.836 ± 0.035
HCC1954 BREAST	0.4128 ± 0.0025	0.433 ± 0.01	0.42 ± 0.043	0.456 ± 0.0085	0.467 ± 0.037	0.415 ± 0.064	0.364 ± 0.061	0.417 ± 0.01	0.9487 ± 0.0025	0.93 ± 0.092	0.875 ± 0.086	1.03 ± 0.11	0.742 ± 0.01	0.771 ± 0.051	0.604 ± 0.09	0.504 ± 0.12
S68 BREAST	0.907 ± 0.057	0.858 ± 0.22	1.04 ± 0.15	0.847 ± 0.44	1.14 ± 0.15	0.911 ± 0.1	0.56 ± 0.076	0.369 ± 0.083	1.03 ± 0.2	1.16 ± 0.29	1.09 ± 0.28	1.24 ± 0.22	0.826 ± 0.13	0.79 ± 0.18	0.589 ± 0.086	0.516 ± 0.076
PCI30 HEADNECK	0.917 ± 0.054	0.887 ± 0.054	0.942 ± 0.064	0.958 ± 0.04	0.655 ± 0.075	0.509 ± 0.048	0.32 ± 0.044	0.334 ± 0.033	0.947 ± 0.047	0.947 ± 0.054	0.969 ± 0.078	1.04 ± 0.052	1.04 ± 0.064	1.03 ± 0.1	1 ± 0.034	0.867 ± 0.044
MCF7 BREAST	0.816 ± 0.033	0.821 ± 0.015	0.819 ± 0.007	0.779 ± 0.05	0.829 ± 0.037	0.847 ± 0.028	0.787 ± 0.0039	0.7254 ± 0.0065	0.946 ± 0.053	0.874 ± 0.035	0.902 ± 0.033	0.888 ± 0.012	0.99 ± 0.058	0.955 ± 0.03	0.933 ± 0.019	1 ± 0.06
HOSMNG BONE	0.966 ± 0.025	0.983 ± 0.011	0.992 ± 0.015	1.01 ± 0.021	1.05 ± 0.048	1.03 ± 0.083	0.984 ± 0.029	0.845 ± 0.035	1 ± 0.065	0.944 ± 0.013	0.982 ± 0.051	0.978 ± 0.044	1.03 ± 0.011	0.9887 ± 0.0031	1.01 ± 0.043	0.998 ± 0.056
SJSA1 BONE	0.855 ± 0.056	0.861 ± 0.079	0.839 ± 0.026	0.773 ± 0.011	0.654 ± 0.029	0.504 ± 0.025	0.481 ± 0.029	0.44 ± 0.024	0.993 ± 0.05	1.04 ± 0.03	1.05 ± 0.029	1.06 ± 0.061	1 ± 0.017	1.05 ± 0.026	0.9383 ± 0.0074	0.892 ± 0.034
HCT15 LARGE INTESTINE	0.883 ± 0.065	0.887 ± 0.025	0.852 ± 0.011	0.85 ± 0.019	0.805 ± 0.022	0.66 ± 0.044	0.15 ± 0.019	0.104 ± 0.0095	1.05 ± 0.017	1.04 ± 0.061	1.05 ± 0.05	1.05 ± 0.052	1 ± 0.066	1.01 ± 0.041	1.05 ± 0.052	1.08 ± 0.017

Source: the supplement of paper PMC6045584
